Source: PubChem BioAssay AID1259411 (Chemical Carcinogenesis Research Information System (CCRIS), 2018)
Activity calls are given as the source filed them. No rule for the calls is given here.

Tested on: rodent carcinogenicity bioassays, tumor incidence
Assay: CCRIS carcinogenicity studies
In short: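 NCI-built, expert-reviewed records of carcinogenicity and related test outcomes (mutagenicity, tumor promotion/inhibition) compiled from published and report sources, historical span 1985-2011, not updated.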

SMILES: Clc1cc2c(c(Cl)c1Cl)Oc1cc(Cl)c(Cl)c(Cl)c1O2
- carcinogen call (Species: MOUSE, Strain/Sex: B6C3F1/FEMALE, Route: GAVAGE, Dose: 0, 2.5, 5.0, 10.0 UG/KG/WK (9:1 CORN OIL-ACETONE, 2 D/WK) FOR 104 WK (STUDY DURATION: 105-108 WK), Dose: 0, 2.5, 5.0, 10.0 UG/KG/WK (9:1 CORN OIL-ACETONE, 2 D/WK) FOR 104 WK (STUDY DURATION: 105-108 WK), Tumor Site: Type of Lesion: LIVER: HEPATOCELLULAR ADENOMA OR CARCINOMA): active; positive
- carcinogen call (Species: MOUSE, Strain/Sex: B6C3F1/MALE, Route: GAVAGE, Dose: 0, 1.25, 2.5, 5 UG/KG/WK (9:1 CORN OIL-ACETONE, 2 D/WK) FOR 104 WK (STUDY DURATION: 105-108 WK), Dose: 0, 1.25, 2.5, 5 UG/KG/WK (9:1 CORN OIL-ACETONE, 2 D/WK) FOR 104 WK (STUDY DURATION: 105-108 WK), Tumor Site: Type of Lesion: LIVER: HEPATOCELLULAR ADENOMA, CARCINOMA): active; positive
- carcinogen call (Species: MOUSE, Strain/Sex: SWISS/FEMALE, Route: DERMAL, Dose: 0, 0.01 UG (SUSPENDED IN 0.1 ML ACETONE APPLIED 3 DAYS/WK)): inactive; negative
- carcinogen call (Species: MOUSE, Strain/Sex: SWISS/MALE, Route: DERMAL, Dose: 0, 0.01 UG (SUSPENDED IN 0.1 ML ACETONE APPLIED 3 DAYS/WK)): inactive; negative
- carcinogen call (Species: RAT, Strain/Sex: OSBORNE-MENDEL/FEMALE, Route: GAVAGE, Dose: 0, 1.25, 2.5, 5 UG/KG/WK (9:1 CORN OIL-ACETONE, 2 D/WK) FOR 104 WK (STUDY DURATION: 105-108 WK), Dose: 0, 1.25, 2.5, 5 UG/KG/WK (9:1 CORN OIL-ACETONE, 2 D/WK) FOR 104 WK (STUDY DURATION: 105-108 WK), Tumor Site: Type of Lesion: LIVER: NEOPLASTIC NODULE, HEPATOCELLULAR CARCINOMA): active; positive
- carcinogen call (Species: RAT, Strain/Sex: OSBORNE-MENDEL/MALE, Route: GAVAGE, Dose: 0, 1.25, 2.5, 5 UG/KG/WK (9:1 CORN OIL-ACETONE, 2 D/WK) FOR 104 WK (STUDY DURATION: 105-108 WK), Dose: 0, 1.25, 2.5, 5 UG/KG/WK (9:1 CORN OIL-ACETONE, 2 D/WK) FOR 104 WK (STUDY DURATION: 105-108 WK), Tumor Site: Type of Lesion: LIVER: NEOPLASTIC NODULE, HEPATOCELLULAR CARCINOMA): equivocal

SMILES: O=[N+]([O-])c1cc(N(CCO)CCO)ccc1NCCO
- carcinogen call (Species: MOUSE, Strain/Sex: B6C3F1/FEMALE, Route: ORAL, Dose: 0, 10000, 20000 PPM IN DIET FOR 104 WK, Dose: 0, 10000, 20000 PPM IN DIET FOR 104 WK): inactive; negative
- carcinogen call (Species: MOUSE, Strain/Sex: B6C3F1/MALE, Route: ORAL, Dose: 0, 5000, 10000 PPM IN DIET FOR 104 WK, Dose: 0, 5000, 10000 PPM IN DIET FOR 104 WK): inactive; negative
- carcinogen call (Species: RAT, Strain/Sex: F344/FEMALE, Route: ORAL, Dose: 0, 10000, 20000 PPM IN DIET FOR 103 WK, Dose: 0, 10000, 20000 PPM IN DIET FOR 103 WK): inactive; negative
- carcinogen call (Species: RAT, Strain/Sex: F344/MALE, Route: ORAL, Dose: 0, 5000, 10000 PPM IN DIET FOR 103 WK, Dose: 0, 5000, 10000 PPM IN DIET FOR 103 WK): inactive; negative

SMILES: C=CC(=O)NCO
- carcinogen call (Species: MOUSE, Strain/Sex: B6C3F1/FEMALE, Route: GAVAGE, Dose: 0, 25, 50 MG/KG IN DEIONIZED WATER 5 D/WK FOR 103 WK (STUDY DURATION: 105 WK), Dose: 0, 25, 50 MG/KG IN DEIONIZED WATER 5 D/WK FOR 103 WK (STUDY DURATION: 105 WK), Tumor Site: Type of Lesion: HARDERIAN GLAND: ADENOMA, ADENOMA OR CARCINOMA, LIVER: HEPATOCELLULAR ADENOMA, HEPATOCELLULAR ADENOMA OR CARCINOMA, LUNG, Tumor Site: Type of Lesion: HARDERIAN GLAND: ADENOMA, ADENOMA OR CARCINOMA, LIVER: HEPATOCELLULAR ADENOMA, HEPATOCELLULAR ADENOMA OR CARCINOMA, LUNG): active; positive
- carcinogen call (Species: MOUSE, Strain/Sex: B6C3F1/MALE, Route: GAVAGE, Dose: 0, 25, 50 MG/KG IN DEIONIZED WATER 5 D/WK FOR 103 WK (STUDY DURATION: 105 WK), Dose: 0, 25, 50 MG/KG IN DEIONIZED WATER 5 D/WK FOR 103 WK (STUDY DURATION: 105 WK), Tumor Site: Type of Lesion: HARDERIAN GLAND: ADENOMA, ADENOMA OR CARCINOMA, LIVER: HEPATOCELLULAR ADENOMA, HEPATOCELLULAR CARCINOMA, LUNG: ALVEOLAR/, Tumor Site: Type of Lesion: HARDERIAN GLAND: ADENOMA, ADENOMA OR CARCINOMA, LIVER: HEPATOCELLULAR ADENOMA, HEPATOCELLULAR CARCINOMA, LUNG: ALVEOLAR/): active; positive
- carcinogen call (Species: RAT, Strain/Sex: F344/FEMALE, Route: GAVAGE, Dose: 0, 6, 12 MG/KG IN DEIONIZED WATER 5 D/WK FOR 103 WK (STUDY DURATION: 105 WK), Dose: 0, 6, 12 MG/KG IN DEIONIZED WATER 5 D/WK FOR 103 WK (STUDY DURATION: 105 WK)): inactive; negative
- carcinogen call (Species: RAT, Strain/Sex: F344/MALE, Route: GAVAGE, Dose: 0, 6, 12 MG/KG IN DEIONIZED WATER 5 D/WK FOR 103 WK (STUDY DURATION: 105 WK), Dose: 0, 6, 12 MG/KG IN DEIONIZED WATER 5 D/WK FOR 103 WK (STUDY DURATION: 105 WK)): inactive; negative

SMILES: C[C@]12CC[C@@H]3c4ccc(O)c(O)c4CC[C@H]3[C@@H]1CC[C@@H]2O
- carcinogen call (Species: MOUSE, Strain/Sex: CD-1/FEMALE, Route: SUBCUTANEOUS, Dose: 0, 2 UG/D IN CORN OIL ON DAYS 1-5 OF LIFE (STUDY DURATION: 12-18 WK), Tumor Site: Type of Lesion: UTERUS: ADENOCARCINOMA): active; positive
- carcinogen call (Species: Mouse, Strain/Sex: CD-1/Female (45/experimental group; 40/control group), Route: Subcutaneous, Dose: 0, 2 ug in peanut oil, dosed on days 1-5 of life and retained for 1.5 (4 animals), 3 (4 animals), 6 (4 animals), 9 (4 an, Dose: 0, 2 ug in peanut oil, dosed on days 1-5 of life and retained for 1.5 (4 animals), 3 (4 animals), 6 (4 animals), 9 (4 an, Tumor Site: Type of Lesion: Uterus and ovaries examined): inactive; negative; nonneoplastic changes observed

SMILES: Nc1ccc2c(c1)Cc1ccccc1-2
- carcinogen call (Species: MOUSE, Strain/Sex: MALE,FEMALE, Route: DERMAL, Dose: 4% SOLN IN ACETONE, 90 APPLICATIONS (TOTAL DOSE: 270 MG), Tumor Site: Type of Lesion: LIVER: HEPATOMA, INTESTINES): active; positive
- carcinogen call (Species: RAT, Strain/Sex: F344/MALE, Route: INJECTION, Dose: 0, 1 UMOL IN 0.5 ML OF SOLUTION CONTAINING 0.4 ML PHOSPHATE BUFFERED SALINE/ GENTAMYCIN (PH 7) AND 0.1 ML DMSO INJECTED): inactive; negative
- carcinogen call (Species: RAT, Strain/Sex: HOLTZMAN/FEMALE, Route: ORAL, Dose: 1.62 MMOL/KG IN DIET, Tumor Site: Type of Lesion: MAMMARY GLAND, EAR (DUCT)): active; positive
- carcinogen call (Species: RAT, Strain/Sex: HOLTZMAN/MALE, Route: ORAL, Dose: 1.62 MMOL/KG IN DIET, Tumor Site: Type of Lesion: LIVER, EAR (DUCT), INTESTINES (SMALL), Tumor Site: Type of Lesion: LIVER, EAR (DUCT), INTESTINES (SMALL)): active; positive
- carcinogen call (Species: RAT, Strain/Sex: WISTAR/MALE, Route: DERMAL, Dose: 4% SOLN IN ACETONE 3/WK FOR 30 WK (TOTAL DOSE: 270 MG), Tumor Site: Type of Lesion: LIVER: HEPATOCELLULAR CARCINOMA, EAR (ZYMBAL GLAND): CARCINOMA): active; positive

SMILES: Cc1c(COC(=O)[C@@H]2[C@H](/C=C(\Cl)C(F)(F)F)C2(C)C)cccc1-c1ccccc1
- carcinogen call (Species: Mouse, Strain/Sex: Swiss-Webster Derived Tac(SW)fBR/Female (50/sex/group), Route: Oral, Dose: 0, 50, 200, 500, 600 ppm in feed for 20-21 months, Dose: 0, 50, 200, 500, 600 ppm in feed for 20-21 months): inactive; negative; purity 88.35% (98% cis- and 2% trans-isomer)
- carcinogen call (Species: Mouse, Strain/Sex: Swiss-Webster Derived Tac(SW)fBR/Male (50/sex/group), Route: Oral, Dose: 0, 50, 200, 500, 600 ppm in feed for 20-21 months, Dose: 0, 50, 200, 500, 600 ppm in feed for 20-21 months, Tumor Site: Type of Lesion: Urinary bladder: Leiomyosarcoma (Dose related increase, 29% at 600 ppm)): active; positive; purity 88.35% (98% cis- and 2% trans-isomer)
- carcinogen call (Species: Rat, Strain/Sex: Sprague-Dawley/Female (50/sex/group), Route: Oral, Dose: 0, 12, 50, 100, 200 ppm in feed for 2 yr, Dose: 0, 12, 50, 100, 200 ppm in feed for 2 yr): inactive; negative; purity 88.35% (98% cis- and 2% trans-isomer)
- carcinogen call (Species: Rat, Strain/Sex: Sprague-Dawley/Male (60/group), Route: Oral, Dose: 0, 12, 50, 100, 200 ppm in feed for 2 yr, Dose: 0, 12, 50, 100, 200 ppm in feed for 2 yr): inactive; negative; purity 88.35% (98% cis- and 2% trans-isomer)
